Reference: ChEMBL document CHEMBL1909046, “DrugMatrix in vitro pharmacology data”
*1 amine or outer side, *2 acyl side, *3 side chain or, on linkers, in order; H or OH if unused. Where a SMILES comes first, the peptide text is derived from it. Bridges are numbered along the chain shown (N, C = ends). Roman numbers before positions name the chains, in order. [ ]: non-standard residue; d: D form. Actinocin(1to9) = Cc1c2oc3c(C)ccc(C(=O)[*:2])c3nc-2c(C(=O)[*:1])c(N)c1=O; NMeV = CN[C@H](C(=O)O)C(C)C; Sar = CNCC(=O)O

Key:
[1] = biological target: T1, 5-hydroxytryptamine receptor 2C (Homo sapiens, UniProt P28335); test: DRUGMATRIX: Serotonin (5-Hydroxytryptamine) 5-HT2C radioligand binding (ligand: [3H] Mesulergine); assay type: cell membranes, CHO-K1, Membrane; conditions: cho-k1; Not Active = under 50% inhibition at 10 µM
T1 sequence (P28335 whole entry): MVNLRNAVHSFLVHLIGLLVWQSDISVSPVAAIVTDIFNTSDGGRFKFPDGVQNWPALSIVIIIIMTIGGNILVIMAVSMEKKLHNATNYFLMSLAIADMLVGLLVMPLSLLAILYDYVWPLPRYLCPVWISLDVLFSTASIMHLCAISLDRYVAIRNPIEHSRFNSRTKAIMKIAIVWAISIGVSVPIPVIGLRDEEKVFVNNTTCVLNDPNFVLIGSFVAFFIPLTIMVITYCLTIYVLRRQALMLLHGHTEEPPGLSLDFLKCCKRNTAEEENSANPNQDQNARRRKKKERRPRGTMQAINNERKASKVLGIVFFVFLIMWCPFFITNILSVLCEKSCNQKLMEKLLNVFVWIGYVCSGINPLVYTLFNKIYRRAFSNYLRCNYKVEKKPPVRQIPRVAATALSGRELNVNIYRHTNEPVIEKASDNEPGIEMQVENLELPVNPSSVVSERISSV

[2] = biological target: Kappa-type opioid receptor (Homo sapiens, UniProt P41145); test: DRUGMATRIX: Opiate kappa (OP2, KOP) radioligand binding (ligand: [3H] Diprenorphine); assay type: cell membranes, HEK293, Membrane; conditions: hek293; Not Active = under 50% inhibition at 10 µM
Chain of Kappa-type opioid receptor (P41145 whole entry): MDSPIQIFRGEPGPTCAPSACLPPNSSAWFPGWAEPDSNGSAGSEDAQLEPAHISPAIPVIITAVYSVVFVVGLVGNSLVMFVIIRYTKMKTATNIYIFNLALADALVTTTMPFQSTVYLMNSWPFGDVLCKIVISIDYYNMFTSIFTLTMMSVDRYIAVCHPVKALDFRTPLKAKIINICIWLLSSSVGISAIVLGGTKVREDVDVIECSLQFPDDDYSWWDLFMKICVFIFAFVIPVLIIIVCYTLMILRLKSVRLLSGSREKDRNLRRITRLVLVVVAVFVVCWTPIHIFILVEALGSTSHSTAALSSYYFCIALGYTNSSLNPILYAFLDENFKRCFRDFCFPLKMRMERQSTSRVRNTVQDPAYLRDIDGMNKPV

[3] = biological target: T2, Polyunsaturated fatty acid lipoxygenase ALOX15 (Oryctolagus cuniculus, UniProt P12530); test: biochemical; assay type: tissue-based, Reticulocytes; conditions: reticulocytes;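 also: inhibition of 15-lipoxygenase enzyme activity measured with linoleic acid as the substrate; in other assays of this panel Not Active means under 50% inhibition at 10 µM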
T2 sequence (P12530 whole entry): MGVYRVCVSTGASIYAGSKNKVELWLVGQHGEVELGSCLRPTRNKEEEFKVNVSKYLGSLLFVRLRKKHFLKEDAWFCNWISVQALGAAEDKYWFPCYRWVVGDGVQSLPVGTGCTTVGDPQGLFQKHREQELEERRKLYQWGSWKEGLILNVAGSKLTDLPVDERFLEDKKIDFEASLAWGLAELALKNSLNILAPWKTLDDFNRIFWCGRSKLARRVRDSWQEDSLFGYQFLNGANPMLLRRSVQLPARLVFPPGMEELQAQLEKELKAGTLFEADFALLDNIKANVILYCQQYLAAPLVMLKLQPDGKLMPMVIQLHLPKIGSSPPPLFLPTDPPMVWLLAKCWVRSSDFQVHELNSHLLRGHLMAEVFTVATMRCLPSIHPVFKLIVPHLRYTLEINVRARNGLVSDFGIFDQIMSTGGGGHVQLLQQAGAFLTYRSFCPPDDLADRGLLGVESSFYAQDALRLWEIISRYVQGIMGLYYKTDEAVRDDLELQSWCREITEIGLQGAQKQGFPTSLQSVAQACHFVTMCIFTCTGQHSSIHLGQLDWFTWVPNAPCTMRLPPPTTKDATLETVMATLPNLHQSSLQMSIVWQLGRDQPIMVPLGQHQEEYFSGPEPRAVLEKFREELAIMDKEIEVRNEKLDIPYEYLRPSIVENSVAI

[4] = biological target: Beta-2 adrenergic receptor (Homo sapiens, UniProt P07550); test: DRUGMATRIX: Adrenergic beta2 radioligand binding (ligand: [3H] CGP-12177); assay type: cell membranes, Membrane; conditions: cho; Not Active = under 50% inhibition at 10 µM
Chain of Beta-2 adrenergic receptor (P07550 whole entry): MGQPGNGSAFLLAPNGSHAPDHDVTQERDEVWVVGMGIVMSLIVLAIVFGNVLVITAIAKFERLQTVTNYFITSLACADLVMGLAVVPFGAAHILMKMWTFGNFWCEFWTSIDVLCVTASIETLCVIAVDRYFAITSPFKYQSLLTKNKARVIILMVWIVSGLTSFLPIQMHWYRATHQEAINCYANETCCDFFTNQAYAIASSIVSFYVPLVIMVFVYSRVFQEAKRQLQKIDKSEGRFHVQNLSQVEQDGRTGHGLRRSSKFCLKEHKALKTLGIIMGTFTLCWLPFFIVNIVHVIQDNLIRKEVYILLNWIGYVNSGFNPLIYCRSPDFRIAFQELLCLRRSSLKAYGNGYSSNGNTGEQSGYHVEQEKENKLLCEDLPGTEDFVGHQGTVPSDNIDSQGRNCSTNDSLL

[5] = DRUGMATRIX: GABAA, Muscimol, Central radioligand binding (ligand: [3H] Muscimol); assay type: cell membranes, Rattus norvegicus, Wistar, Brain, Membrane; conditions: Not Active = under 50% inhibition at 10 µM
[6] = biological target: T3, 3-hydroxy-3-methylglutaryl-coenzyme A reductase (Homo sapiens, UniProt P04035); parameters: species or system Escherichia coli;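 also: enzyme inhibition assay of HMG-CoA reductase using radiolabeled [14C]HMG-CoA as substrate; in other assays of this panel Not Active means under 50% inhibition at 10 µM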
T3 sequence (P04035 whole entry): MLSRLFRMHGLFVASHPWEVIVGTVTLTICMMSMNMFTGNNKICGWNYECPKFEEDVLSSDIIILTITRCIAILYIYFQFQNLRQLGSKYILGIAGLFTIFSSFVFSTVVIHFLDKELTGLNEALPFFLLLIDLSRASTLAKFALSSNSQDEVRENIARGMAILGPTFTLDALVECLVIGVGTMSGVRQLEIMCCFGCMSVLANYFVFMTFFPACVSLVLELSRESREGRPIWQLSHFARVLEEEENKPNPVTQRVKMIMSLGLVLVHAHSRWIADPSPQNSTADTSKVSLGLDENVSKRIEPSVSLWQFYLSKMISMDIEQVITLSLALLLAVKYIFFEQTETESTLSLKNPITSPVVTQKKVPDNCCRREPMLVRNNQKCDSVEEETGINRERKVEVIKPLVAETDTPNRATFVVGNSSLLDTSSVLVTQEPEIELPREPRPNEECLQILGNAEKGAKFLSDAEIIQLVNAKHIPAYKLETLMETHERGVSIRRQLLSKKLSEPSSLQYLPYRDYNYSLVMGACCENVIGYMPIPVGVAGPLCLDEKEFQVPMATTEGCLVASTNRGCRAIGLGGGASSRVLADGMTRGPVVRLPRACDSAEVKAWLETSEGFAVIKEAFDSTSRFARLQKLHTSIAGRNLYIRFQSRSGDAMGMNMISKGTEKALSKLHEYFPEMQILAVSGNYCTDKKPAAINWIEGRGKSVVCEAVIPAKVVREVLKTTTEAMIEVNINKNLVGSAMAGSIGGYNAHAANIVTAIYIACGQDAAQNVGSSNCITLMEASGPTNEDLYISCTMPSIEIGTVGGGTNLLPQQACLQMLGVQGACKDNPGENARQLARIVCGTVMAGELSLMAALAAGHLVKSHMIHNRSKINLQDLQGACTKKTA

NCCCCCC(=O)O [AMINOCAPROIC ACID]
Not Active: IC50 [1] | IC50 [2] | IC50 [3] | IC50 [4] | IC50 [5] | Ki [5] | IC50 [6]

CCC1(c2ccc(N)cc2)CCC(=O)NC1=O (stereo unspecified) [AMINOGLUTETHIMIDE]
Not Active: IC50 [1] | IC50 [2] | IC50 [3] | IC50 [4] | IC50 [5] | Ki [5] | IC50 [6]

CCOC(=O)C1=C(COCCN)NC(C)=C(C(=O)OC)C1c1ccccc1Cl (stereo unspecified) [AMLODIPINE]
Not Active: IC50 [1] | IC50 [2] | IC50 [3] | IC50 [4] | IC50 [5] | Ki [5] | IC50 [6]

Nc1ncn([C@@H]2O[C@H](CO)[C@@H](O)[C@H]2O)c(=O)n1 [AZACITIDINE]
Not Active: IC50 [1] | IC50 [2] | IC50 [3] | IC50 [4] | IC50 [5] | Ki [5] | IC50 [6]

CN(C)C(=O)Oc1cc(OC(=O)N(C)C)cc(C(O)CNC(C)(C)C)c1 (stereo unspecified) [BAMBUTEROL]
Not Active: IC50 [1] | IC50 [2] | IC50 [3] | IC50 [4] | IC50 [5] | Ki [5] | IC50 [6]

c1ccc2c(c1)c1cccc3ccc4cccc2c4c31 [BENZO[E]PYRENE]
Not Active: IC50 [1] | IC50 [2] | IC50 [3] | IC50 [4] | IC50 [5] | Ki [5] | IC50 [6]

CNCCc1ccccn1 [BETAHISTINE]
Not Active: IC50 [1] | IC50 [2] | IC50 [3] | IC50 [4] | IC50 [5] | Ki [5] | IC50 [6]

CC(C)C(Br)C(=O)NC(N)=O (stereo unspecified) [BROMISOVALUM]
Not Active: IC50 [1] | IC50 [2] | IC50 [3] | IC50 [4] | IC50 [5] | Ki [5] | IC50 [6]

CCCC1O[C@@H]2C[C@H]3[C@@H]4CCC5=CC(=O)C=C[C@]5(C)[C@H]4[C@@H](O)C[C@]3(C)[C@]2(C(=O)CO)O1 (stereo partly specified) [BUDESONIDE]
Not Active: IC50 [1] | IC50 [2] | IC50 [3] | IC50 [4] | IC50 [5] | Ki [5] | IC50 [6]

CC(NC(C)(C)C)C(=O)c1cccc(Cl)c1 (stereo unspecified) [BUPROPION]
Not Active: IC50 [1] | IC50 [2] | IC50 [3] | IC50 [4] | IC50 [5] | Ki [5] | IC50 [6]

CN(Cc1ccc(C(C)(C)C)cc1)Cc1cccc2ccccc12 [BUTENAFINE]
Not Active: IC50 [1] | IC50 [2] | IC50 [3] | IC50 [4] | IC50 [5] | Ki [5] | IC50 [6]

C[C@H](CS)C(=O)N1CCC[C@H]1C(=O)O [CAPTOPRIL]
Not Active: IC50 [1] | IC50 [2] | IC50 [3] | IC50 [4] | IC50 [5] | Ki [5] | IC50 [6]

Cc1ccc(-c2cc(C(F)(F)F)nn2-c2ccc(S(N)(=O)=O)cc2)cc1 [CELECOXIB]
Not Active: IC50 [1] | IC50 [2] | IC50 [3] | IC50 [4] | IC50 [5] | Ki [5] | IC50 [6]

C[C@H](CCC(=O)O)[C@H]1CC[C@H]2[C@@H]3[C@H](O)C[C@@H]4C[C@H](O)CC[C@]4(C)[C@H]3C[C@H](O)[C@]12C [CHOLIC ACID]
Not Active: IC50 [1] | IC50 [2] | IC50 [3] | IC50 [4] | IC50 [5] | Ki [5] | IC50 [6]

Cc1cc(C2CCCCC2)n(O)c(=O)c1 [CICLOPIROX]
Not Active: IC50 [1] | IC50 [2] | IC50 [3] | IC50 [4] | IC50 [5] | Ki [5] | IC50 [6]

CC(C)(Oc1ccc(Cl)cc1)C(=O)O [CLOFIBRIC ACID]
Not Active: IC50 [1] | IC50 [2] | IC50 [3] | IC50 [4] | IC50 [5] | Ki [5] | IC50 [6]

Clc1cccc(Cl)c1NC1=NCCN1 [CLONIDINE]
Not Active: IC50 [1] | IC50 [2] | IC50 [3] | IC50 [4] | IC50 [5] | Ki [5] | IC50 [6]

Cc1cc(C(C#N)c2ccc(Cl)cc2)c(Cl)cc1NC(=O)c1cc(I)cc(I)c1O (stereo unspecified) [CLOSANTEL]
Not Active: IC50 [1] | IC50 [2] | IC50 [3] | IC50 [4] | IC50 [5] | Ki [5] | IC50 [6]

Cc1onc(-c2ccccc2Cl)c1C(=O)N[C@@H]1C(=O)N2[C@@H]1SC(C)(C)[C@@H]2C(=O)O [CLOXACILLIN]
Not Active: IC50 [1] | IC50 [2] | IC50 [3] | IC50 [4] | IC50 [5] | Ki [5] | IC50 [6]

CC1CC(OC(=O)C(O)c2ccccc2)CC(C)(C)C1 (stereo unspecified) [CYCLANDELATE]
Not Active: IC50 [1] | IC50 [2] | IC50 [3] | IC50 [4] | IC50 [5] | Ki [5] | IC50 [6]

Cc1c2oc3c(C)ccc(C(=O)N[C@@H]4C(=O)N[C@H](C(C)C)C(=O)N5CCC[C@H]5C(=O)N(C)CC(=O)N(C)[C@@H](C(C)C)C(=O)O[C@@H]4C)c3nc-2c(C(=O)N[C@@H]2C(=O)N[C@H](C(C)C)C(=O)N3CCC[C@H]3C(=O)N(C)CC(=O)N(C)[C@@H](C(C)C)C(=O)O[C@@H]2C)c(N)c1=O [DACTINOMYCIN] (I: T[dV]P[Sar][NMeV] / II: T[dV]P[Sar][NMeV]; ester I:1-I:C, II:1-II:C; linker I:N-II:N via Actinocin(1to9))
Not Active: IC50 [1] | IC50 [2] | IC50 [3] | IC50 [4] | IC50 [5] | Ki [5] | IC50 [6]

Cc1c(O)c(=O)ccn1C [DEFERIPRONE]
Not Active: IC50 [1] | IC50 [2] | IC50 [3] | IC50 [4] | IC50 [5] | Ki [5] | IC50 [6]

O=c1oc2ccccc2c(O)c1Cc1c(O)c2ccccc2oc1=O [DICUMAROL]
Not Active: IC50 [1] | IC50 [2] | IC50 [3] | IC50 [4] | IC50 [5] | Ki [5] | IC50 [6]
